The text below walks through data of patent US9365575B2, “Kinase inhibitors” (Allergan, Inc., priority 2012, dated 2016).

In the assay the target is VEGFR2 (Homo sapiens (Human), UniProt P35968). Put plainly: VEGFR2 Kinase Assay (biochemical KDR kinase assay, poly-Glu-Tyr ELISA). Conditions: for IC50: purified cytoplasmic domain KDR protein, 2.7 μM ATP, 15 minute incubation at 30° C., read-out: VEGFR2 Enzyme IC50; for VEGFR2 potency as shown in this assay (in words): statement in words on the Table 2 data. Here is the method: Biochemical KDR kinase assays were performed in 96 well microtiter plates that were coated overnight with 75 μg/well of poly-Glu-Tyr (4:1) in 10 mM Phosphate Buffered Saline (PBS), pH 7.4. The coated plates were washed with 2 mLs per well PBS+0.05% Tween-20 (PBS-T), blocked by incubation with PBS containing 1% BSA, then washed with 2 mLs per well PBS-T prior to starting the reaction. Reactions were carried out in 100 μL reaction volumes containing 2.7 μM ATP in kinase buffer (50 mM Hepes buffer pH 7.4, 20 mM MgCl2, 0.1 mM MnCl2 and 0.2 mM Na3VO4). […] Reactions were initiated by the addition 20 ul per well of kinase buffer containing 200-300 ng purified cytoplasmic domain KDR protein (BPS Bioscience, San Diego, Calif.). Following a 15 minute incubation at 30° C., the reactions were washed 2 mLs per well PBS-T. 100 μl of a monoclonal anti-phosphotyrosine antibody-peroxidase conjugate diluted 1:10,000 in PBS-T was added to the wells for 30 minutes. Following a 2 mLs per well wash with PBS-Tween-20, 100 μl of O-Phenylenediamine Dihydrochloride in phosphate-citrate buffer, containing urea hydrogen peroxide, was added to the wells for 7-10 minutes as a colorimetric substrate for the peroxidase. The reaction was terminated by the addition of 100 μl of 2.5N H2SO4 to each well and read using a microplate ELISA reader set at 492 nm. IC50 values for compound inhibition were calculated directly from graphs of optical density (arbitrary units) versus compound concentration following subtraction of blank values.
Sequence of VEGFR2 (P35968 786-1356): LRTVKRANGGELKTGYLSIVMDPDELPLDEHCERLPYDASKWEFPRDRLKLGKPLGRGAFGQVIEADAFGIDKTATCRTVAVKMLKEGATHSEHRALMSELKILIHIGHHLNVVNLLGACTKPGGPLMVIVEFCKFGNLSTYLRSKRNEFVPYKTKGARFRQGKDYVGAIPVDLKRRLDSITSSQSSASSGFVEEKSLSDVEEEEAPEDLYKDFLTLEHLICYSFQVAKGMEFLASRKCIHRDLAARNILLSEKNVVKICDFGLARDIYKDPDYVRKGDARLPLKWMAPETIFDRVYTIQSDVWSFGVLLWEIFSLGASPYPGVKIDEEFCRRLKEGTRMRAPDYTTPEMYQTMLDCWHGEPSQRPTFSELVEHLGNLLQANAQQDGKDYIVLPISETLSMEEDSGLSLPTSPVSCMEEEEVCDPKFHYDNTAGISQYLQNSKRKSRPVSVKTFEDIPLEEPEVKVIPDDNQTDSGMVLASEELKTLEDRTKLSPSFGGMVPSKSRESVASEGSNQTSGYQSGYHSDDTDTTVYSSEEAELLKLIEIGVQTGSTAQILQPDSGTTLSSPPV

As to `O=C1Nc2ccccc2C2=NCC(c3ccc(Cl)cc3)CN12` (stereo not drawn) [Example 1, 3-(4-Chlorophenyl)-2,3,4,7-tetrahydro-6H-pyrimido[1,2-c]quinazolin-6-one], the IC50 is above 10000 nM. On the same count and under the same terms, the value for `Nc1cccc(C2CN=C3c4ccccc4NC(=O)N3C2)c1` (stereo not drawn) [Example 2, 3-(3-Aminophenyl)-2,3,4,7-tetrahydro-6H-pyrimido[1,2-c]quinazolin-6-one] was above 10000 nM.

Consider `O=C(Nc1cccc(C2CN=C3c4ccccc4NC(=O)N3C2)c1)Nc1cc(C(F)(F)F)ccc1F` (stereo not drawn) [Example 3, 1-[2-Fluoro-5-(trifluoromethyl)phenyl]-3-[3-(6-oxo-3,4,6,7-tetrahydro-2H-pyrimido[1,2-c]quinazolin-3-yl)phenyl]urea], for which the IC50 amounted to 760 nM and the “VEGFR2 potency as shown in this assay (in words)” value (shortened to “VEGFR2 potency as shown”) is reported as “excellent VEGFR2 potency”. `Nc1ccc(C2CN=C3c4ccccc4NC(=O)N3C2)cc1` (stereo not drawn) [Example 4, 3-(4-Aminophenyl)-2,3,4,7-tetrahydro-6H-pyrimido[1,2-c]quinazolin-6-one]: the half-inhibitory concentration (IC50) was above 10000 nM. As for `O=C(Nc1ccc(C2CN=C3c4ccccc4NC(=O)N3C2)cc1)Nc1cc(C(F)(F)F)ccc1F` (stereo not drawn) [Example 5, 1-[2-Fluoro-5-(trifluoromethyl)phenyl]-3-[4-(6-oxo-3,4,6,7-tetrahydro-2H-pyrimido[1,2-c]quinazolin-3-yl)phenyl]urea], the IC50 worked out at 360 nM and the “VEGFR2 potency as shown” value was “excellent VEGFR2 potency”. On to `O=C(Nc1ccccc1)Nc1ccc(C2CN=C3c4ccccc4NC(=O)N3C2)cc1` (stereo not drawn) [Example 6, 1-[4-(6-Oxo-3,4,6,7-tetrahydro-2H-pyrimido[1,2-c]quinazolin-3-yl)phenyl]-3-phenylurea], for which the IC50 stood at 4750 nM. Take `O=C(Nc1ccc(C2CN=C3c4ccccc4NC(=O)N3C2)cc1)Nc1ccc(Cl)c(C(F)(F)F)c1` (stereo not drawn) [Example 7, 1-[4-Chloro-3-(trifluoromethyl)phenyl]-3-[4-(6-oxo-3,4,6,7-tetrahydro-2H-pyrimido[1,2-c]quinazolin-3-yl)phenyl]urea]: the concentration for half-maximal inhibition (IC50) worked out at 340 nM and the “VEGFR2 potency as shown” value was “excellent VEGFR2 potency”. Consider `CSc1cccc(NC(=O)Nc2ccc(C3CN=C4c5ccccc5NC(=O)N4C3)cc2)c1` (stereo not drawn) [Example 8, 1-[3-(Methylthio)phenyl]-3-[4-(6-oxo-3,4,6,7-tetrahydro-2H-pyrimido[1,2-c]quinazolin-3-yl)phenyl]urea], for which the IC50 came out at 1800 nM.

For `O=C(Nc1ccc(C2CN=C3c4ccccc4NC(=O)N3C2)cc1)Nc1cccc(Br)c1` (stereo not drawn) [Example 9, 1-(3-Bromophenyl)-3-[4-(6-oxo-3,4,6,7-tetrahydro-2H-pyrimido[1,2-c]quinazolin-3-yl)phenyl]urea], the IC50 amounted to 250 nM and the “VEGFR2 potency as shown” value is recorded as “excellent VEGFR2 potency”. Consider `Cc1cccc(NC(=O)Nc2ccc(C3CN=C4c5ccccc5NC(=O)N4C3)cc2)c1` (stereo not drawn) [Example 10, 1-(3-Methylphenyl)-3-[4-(6-oxo-3,4,6,7-tetrahydro-2H-pyrimido[1,2-c]quinazolin-3-yl)phenyl]urea], for which the IC50 was 330 nM and the “VEGFR2 potency as shown” value is reported as “excellent VEGFR2 potency”. Take `Cc1ccc(NC(=O)Nc2ccc(C3CN=C4c5ccccc5NC(=O)N4C3)cc2)cc1` (stereo not drawn) [Example 11, 1-(4-Methylphenyl)-3-[4-(6-oxo-3,4,6,7-tetrahydro-2H-pyrimido[1,2-c]quinazolin-3-yl)phenyl]urea]: the IC50 stood at 4030 nM. As for `COc1ccc(NC(=O)Nc2ccc(C3CN=C4c5ccccc5NC(=O)N4C3)cc2)cc1` (stereo not drawn) [Example 12, 1-(4-Methoxyphenyl)-3-[4-(6-oxo-3,4,6,7-tetrahydro-2H-pyrimido[1,2-c]quinazolin-3-yl)phenyl]urea], the half-inhibitory concentration (IC50) was above 10000 nM. Still for that read-out and setting: the value for `COc1cccc(NC(=O)Nc2ccc(C3CN=C4c5ccccc5NC(=O)N4C3)cc2)c1` (stereo not drawn) [Example 13, 1-(3-Methoxyphenyl)-3-[4-(6-oxo-3,4,6,7-tetrahydro-2H-pyrimido[1,2-c]quinazolin-3-yl)phenyl]urea] was 1470 nM. For the compound `CC(C)NC(=O)Nc1ccc(C2CN=C3c4ccccc4NC(=O)N3C2)cc1` (stereo not drawn) [Example 14, 1-Isopropyl-3-[4-(6-oxo-3,4,6,7-tetrahydro-2H-pyrimido[1,2-c]quinazolin-3-yl)phenyl]urea], the “VEGFR2 potency as shown” value is on record as “lack of potency”.

For the compound `Cc1ccoc1C(=O)Nc1cccc(C2CN=C3c4ccccc4NC(=O)N3C2)c1` (stereo not drawn) [Example 15, 3-Methyl-N-[3-(6-oxo-3,4,6,7-tetrahydro-2H-pyrimido[1,2-c]quinazolin-3-yl)phenyl]-2-furamide], the IC50 was determined as 6380 nM and the “VEGFR2 potency as shown” value is “excellent VEGFR2 potency”. With `Cc1ccoc1C(=O)Nc1ccc(C2CN=C3c4ccccc4NC(=O)N3C2)cc1` (stereo not drawn) [Example 16, 3-Methyl-N-[4-(6-oxo-3,4,6,7-tetrahydro-2H-pyrimido[1,2-c]quinazolin-3-yl)phenyl]-2-furamide], the IC50 was above 10000 nM. The same measure, in the same setting: the value for `O=C(Nc1ccc(C2CN=C3c4ccccc4NC(=O)N3C2)cc1)c1cccc(C(F)(F)F)c1` (stereo not drawn) [Example 17, N-[4-(6-oxo-3,4,6,7-tetrahydro-2H-pyrimido[1,2-c]quinazolin-3-yl)phenyl]-3-(trifluoromethyl)benzamide] was above 10000 nM; that for `CNc1ccc(C2CN=C3c4ccc(C(=O)OC)cc4NC(=O)N3C2)cc1` (stereo not drawn) [Example 18, Methyl 3-[4-(methylamino)phenyl]-6-oxo-3,4,6,7-tetrahydro-2H-pyrimido[1,2-c]quinazoline-9-carboxylate] was above 10000 nM. Turning to `COC(=O)c1ccc2c(c1)NC(=O)N1CC(c3ccc(N(C)C(=O)CN4CCN(C)CC4)cc3)CN=C21` (stereo not drawn) [Example 19, Methyl 3-(4-{methyl[(4-methylpiperazin-1-yl)acetyl]amino}phenyl)-6-oxo-3,4,6,7-tetrahydro-2H-pyrimido[1,2-c]quinazoline-9-carboxylate], the IC50 is above 10000 nM and the “VEGFR2 potency as shown” value is “lack of potency”. For the compound `CN1CCN(CC(=O)Nc2ccc(C3CN=C4c5ccccc5NC(=O)N4C3)cc2)CC1` (stereo not drawn) [Example 20, 2-(4-Methylpiperazin-1-yl)-N-[4-(6-oxo-3,4,6,7-tetrahydro-2H-pyrimido[1,2-c]quinazolin-3-yl)phenyl]acetamide], the IC50 was above 10000 nM and the “VEGFR2 potency as shown” value was “lack of potency”. On to `COC(=O)c1ccc2c(c1)NC(=O)N1CC(c3ccc(N(C)C(=O)Nc4cc(C(F)(F)F)ccc4F)cc3)CN=C21` (stereo not drawn) [Example 21, Methyl 3-{4-[({[2-fluoro-5-(trifluoromethyl)phenyl]amino}carbonyl)(methyl)amino]phenyl}-6-oxo-3,4,6,7-tetrahydro-2H-pyrimido[1,2-c]quinazoline-9-carboxylate], for which the IC50 was above 10000 nM.

In the case of `Cc1cc(C2CN=C3c4ccccc4NC(=O)N3C2)ccc1N` (stereo not drawn) [Example 22, 3-(4-amino-3-methylphenyl)-2,3,4,7-tetrahydro-6H-pyrimido[1,2-c]quinazolin-6-one], the concentration for half-maximal inhibition (IC50) was above 10000 nM. Regarding `Cc1cc(N)ccc1C1CN=C2c3ccccc3NC(=O)N2C1` (stereo not drawn) [Example 23, 3-(4-amino-2-methylphenyl)-2,3,4,7-tetrahydro-6H-pyrimido[1,2-c]quinazolin-6-one], the half-maximal inhibitory concentration (IC50) is above 10000 nM. Regarding `Cc1cccc(NC(=O)Nc2ccc(C3CN=C4c5ccccc5NC(=O)N4C3)c(C)c2)c1` (stereo not drawn) [Example 24, 1-[3-methyl-4-(6-oxo-3,4,6,7-tetrahydro-2H-pyrimido[1,2-c]quinazolin-3-yl)phenyl]-3-(3-methylphenyl)urea], the IC50 is 1500 nM. Same read-out and setting: next, `Cc1cc(NC(=O)Nc2cc(C(F)(F)F)ccc2F)ccc1C1CN=C2c3ccccc3NC(=O)N2C1` (stereo not drawn) [Example 25, 1-[2-fluoro-5-(trifluoromethyl)phenyl]-3-[3-methyl-4-(6-oxo-3,4,6,7-tetrahydro-2H-pyrimido[1,2-c]quinazolin-3-yl)phenyl]urea]: 390 nM.
